Where a name gives a salt, the structure may show the parent alone. Read-outs that look alike come from different tables or passages of the source.
System: platelet aggregation in human platelet rich plasma (PRP)
Assay: Platelet Aggregation Assay (platelet rich plasma, with or without esterase pretreatment)
Type: cell-based
Protocol: Venous blood was obtained from the arm of a healthy human donor who was drug-free and aspirin-free for at least two weeks prior to blood collection. Blood was collected into 10 mL citrated Vacutainer tubes. The blood was centrifuged for 15 minutes at 150×g at room temperature, and platelet-rich plasma (PRP) was removed. The remaining blood was centrifuged for 15 minutes at 1500×g at room temperature, and platelet-poor plasma (PPP) was removed. Samples were assayed on a aggregometer (PAP-4 Platelet Aggregation Profiler), using PPP as the blank (100% transmittance). 200 μL of PRP was added to each micro test tube, and transmittance was set to 0%. 20 μL of various agonists (ADP, collagen, arachidonate, epinephrine, thrombin) were added to each tube, and the aggregation profiles were plotted (% transmittance versus time). The results are expressed as % inhibition of agonist-induced platelet aggregation. For the IC50 evaluation, the test compounds were added at various concentrations prior to the activation of the platelets.
Ester prodrugs were preincubated (10^-3 M F.C.) with 100 IU/mL Porcine liver esterase (Sigma Chemical Co., St. Louis, Mo., #E-3128) for 2 hours at 37° C. Aliquots are then diluted in 0.1M Tris, pH 7.4, to the desired concentrations. Aliquots of 20 μl of the esterase pretreated prodrugs are added to 200 μl of human platelet rich plasma. Samples were placed in platelet profiler (aggregometer) for 8 minutes at 37° C., followed by the addition of 100 μM Adenosine Diphosphate, (Sigma Chemical Co., St. Louis, Mo., #A-6521), to induce platelet aggregation. Platelet aggregation was allowed to proceed for 5 minutes. Percent inhibition is calculated using percent aggregation in the presence of the test compound divided by percent aggregation of control, times 100. This value is subtracted from 100, yielding percent inhibition. Calculation of IC50 is performed on a Texas Instruments TI59 with an IC50 program.
Table A below sets forth the antiplatelet activity of representative compounds of the present invention. The indicated compounds were tested for their ability to inhibit platelet aggregation (using platelet rich plasma (PRP)). The IC50 value (the concentration of antagonist which inhibits platelet aggregation by 50% relative to a control lacking the antagonist) is shown. In Table 5 the IC50 values are expressed as: +++=IC50 of <10 μM; ++=IC50 of 10-50 μM; +=IC50 of 50-100 μM (μM=micromolar).

[1] = Platelet, preincubated with 100 IU/mL porcine liver esterase 2 hours at 37° C., 100 μM ADP, read-out: Platelet Aggregation Assay IC50 (with esterase)
[2] = Platelet, without esterase, read-out: Platelet Aggregation Assay IC50 (without esterase)

Structure (SMILES)	IC50 [1] [µM]	also measured
CCS(=O)(=O)NC(CNC(=O)CC1CC(c2ccc(C(=N)N)cc2)=NO1)C(=O)OC (centres unmarked) [Example 324]	< 10	–
COC(=O)C(CNC(=O)CC1CC(c2ccc(C(=N)N)cc2)=NO1)NS(=O)(=O)c1ccccc1 (centres unmarked) [Example 326]	< 10	–
COC(=O)[C@H](CNC(=O)CC1CC(c2ccc(C(=N)N)cc2)=NO1)NS(=O)(=O)c1ccc(C)cc1 (some centres unmarked) [Example 327]	< 10	–
CCCC[C@H](CC(=O)OC)NC(=O)CC1CC(c2ccc(C(=N)N)cc2)=NO1 (stereo partly drawn) [Example 344, Methyl 3(R)-{5(R,S)-N-[3-(4-Amidinophenyl)isoxazolin-5-ylacetyl]amino}heptanoate]	< 10	–
CCCCC(CC(=O)OCC)NC(=O)CC1CC(c2ccc(C(=N)N)cc2)=NO1 (centres unmarked) [Example 345]	< 10	–
CCOC(=O)C[C@@H](CC(C)C)NC(=O)CC1CC(c2ccc(C(=N)N)cc2)=NO1 (stereo partly drawn) [Example 348, Ethyl 3(R)-{5(R,S)-N-[3-(4-amidinophenyl)isoxazolin-5-ylacetyl]amino}-5-methylhexanoate . trifluoroacetic acid salt]	< 10	–
O=C(O)CCCN1C(=O)CC2(CC(CCCC3CCNCC3)=NO2)C1=O (centres unmarked) [Example 373]	–	IC50 [2]: 10 to 50 µM
N=C(N)c1ccc(C2=NOC(CC(=O)N3CCCCC3CC(=O)O)C2)cc1 [Example 375, 2-(R,S)-2-Carboxymethyl-1-{5-(R,S)-N-[3-(4-amidinophenyl)isoxazolin-5-ylacetyl]}piperidine]	–	IC50 [2]: < 10 µM
COC(=O)CC1CCCCN1C(=O)CC1CC(c2ccc(C(=N)N)cc2)=NO1 (centres unmarked) [Example 394]	< 10	–
CCOC(=O)CC1CCCCN1C(=O)CC1CC(c2ccc(C(=N)N)cc2)=NO1 (centres unmarked) [Example 413]	< 10	–
CCOC(=O)CC1CCCCCN1C(=O)CC1CC(c2ccc(C(=N)N)cc2)=NO1 (centres unmarked) [Example 415]	< 10	–
N=C(N)c1ccc(C2=NOC(CC(=O)N[C@@H](CC(=O)O)C(=O)NCCc3ccccc3)C2)cc1 (stereo partly drawn) [Example 435, (S)-N^α -[3-(4-Amidinophenyl)-isoxazolin-5-(R,S)-ylacetyl]-α-aspart-N-(2-phenylethyl)amide, trifluoroacetic acid salt]	< 10	–
CCOC(=O)CC(NC(=O)CC1CC(c2ccc(C(=N)N)cc2)=NO1)C(=O)OCC (centres unmarked) [Example 439]	< 10	–
COC(=O)C(CNC(=O)CC1CC(c2ccc(C(N)=NC(=O)OC(C)(C)C)cc2)=NO1)NC(=O)OCc1ccccc1 (centres unmarked) [Example 440]	< 10	–
COC(=O)CC(CCCc1ccccc1)NC(=O)CC1CC(c2ccc(C(=N)N)cc2)=NO1 (centres unmarked) [Example 446]	< 10	–
COC(=O)CC(CCc1ccncc1)NC(=O)CC1CC(c2ccc(C(=N)N)cc2)=NO1 (centres unmarked) [Example 450]	< 10	–
CCCCOC(=O)NC(CNC(=O)CC1CC(CCC2CCNCC2)=NO1)C(=O)OC (centres unmarked) [Example 451]	< 10	–
COC(=O)CC(NC(=O)CC1CC(c2ccc(C(=N)N)cc2)=NO1)C(=O)NCCc1ccccc1 (centres unmarked) [Example 452]	< 10	–
COC(=O)CC(NC(=O)CC1CC(c2ccc(C(N)=NC(=O)OC(C)(C)C)cc2)=NO1)C(=O)N1CCN(Cc2ccccc2)CC1 (centres unmarked) [Example 453]	< 10	–
COC(=O)CC(NC(=O)CC1CC(c2ccc(C(=N)N)cc2)=NO1)C(=O)N(C)CCc1ccccc1 (centres unmarked) [Example 454]	< 10	–
COC(=O)CC(NC(=O)CC1CC(c2ccc(C(=N)N)cc2)=NO1)C(=O)N1CCN(Cc2ccccc2)CC1 (centres unmarked) [Example 455]	< 10	–
COC(=O)CC(C#C[Si](C)(C)C)NC(=O)CC1CC(c2ccc(C(=N)N)cc2)=NO1 (centres unmarked) [Example 457]	< 10	–
CCOC(=O)CC(NC(=O)CC1CC(c2ccc(C(=N)N)cc2)=NO1)C(=O)NCC12CC3CC(CC(C3)C1)C2 (centres unmarked) [Example 462]	< 10	–
N=C(N)c1ccc(C2=NOC(CC(=O)NC(CC(=O)O)C(=O)NCC34CC5CC(CC(C5)C3)C4)C2)cc1 (centres unmarked) [Example 463]	–	IC50 [2]: < 10 µM
COC(=O)CC(NC(=O)CC1CC(c2ccc(C(=N)N)cc2)=NO1)C(=O)N1CCCc2ccccc21 (centres unmarked) [Example 464]	< 10	–
COC(=O)CC(NC(=O)CC1CC(c2ccc(C(=N)N)cc2)=NO1)C(=O)N1CCc2ccccc2C1 (centres unmarked) [Example 465]	< 10	–
COC(=O)CC(NC(=O)CC1CC(c2ccc(C(=N)N)cc2)=NO1)C(=O)NC12CC3CC(CC(C3)C1)C2 (centres unmarked) [Example 466]	< 10	–

Structure (SMILES)	IC50 [1] [µM]	also measured
COC(=O)CC(NC(=O)CC1CC(c2ccc(C(=N)N)cc2)=NO1)C(=O)NC1C2CC3CC(C2)CC1C3 (centres unmarked) [Example 467]	< 10	–
COC(=O)CC(NC(=O)CC1CC(c2ccc(C(=N)N)cc2)=NO1)C(=O)N1CCSCC1 (centres unmarked) [Example 468]	< 10	–
COC(=O)CC(NC(=O)CC1CC(c2ccc(C(=N)N)cc2)=NO1)C(=O)N1CCSC1 (centres unmarked) [Example 469]	< 10	–
CCCCOc1ccc(S(=O)(=O)NC(CNC(=O)CC2CC(c3ccc(C(=N)N)cc3)=NO2)C(=O)OC)cc1 (centres unmarked) [Example 471]	< 10	–
COC(=O)C(CNC(=O)CC1CC(c2ccc(C(=N)N)cc2)=NO1)NS(=O)(=O)c1cccs1 (centres unmarked) [Example 472]	< 10	–
COC(=O)[C@H](CNC(=O)CC1CC(c2ccc(C(=N)N)cc2)=NO1)NS(=O)(=O)c1cccc(C)c1 (stereo partly drawn) [Example 473A, Methyl N^2-3-methylphenylsulfonyl-N^3-[3-(4-amidinophenyl)isoxazolin-5R-ylacetyl]-S-2,3-diaminopropionate trifluoroacetic acid salt]	< 10	–
COC(=O)[C@H](CNC(=O)CC1CC(c2ccc(C(=N)N)cc2)=NO1)NS(=O)(=O)c1cccc(C)c1 (stereo partly drawn) [Example 473B, Methyl N^2-3-methylphenylsulfonyl-N^3-[3-(4-amidinophenyl)-5S-ylacetyl]-S-2,3-diaminopropionate trifluoroacetic acid salt]	–	IC50 (preincubated with 100 IU/mL porcine liver esterase 2 hours at 37° C., 100 μM ADP, read-out: Platelet Aggregation Assay IC50 (with esterase)): < 10 µM
COC(=O)C(CNC(=O)CC1CC(c2ccc(C(=N)N)cc2)=NO1)NS(=O)(=O)c1cccc(C)c1 (centres unmarked) [Example 473]	< 10	–
COC(=O)C(CNC(=O)CC1CC(c2ccc(C(=N)N)cc2)=NO1)NS(=O)(=O)c1ccc(I)cc1 (centres unmarked) [Example 474]	< 10	–
COC(=O)C(CNC(=O)CC1CC(c2ccc(C(=N)N)cc2)=NO1)NS(=O)(=O)c1cccc(C(F)(F)F)c1 (centres unmarked) [Example 475]	< 10	–
COC(=O)C(CNC(=O)CC1CC(c2ccc(C(=N)N)cc2)=NO1)NS(=O)(=O)c1cccc(Cl)c1 (centres unmarked) [Example 476]	< 10	–
COC(=O)c1ccccc1S(=O)(=O)NC(CNC(=O)CC1CC(c2ccc(C(=N)N)cc2)=NO1)C(=O)OC (centres unmarked) [Example 477]	< 10	–
COC(=O)C(CNC(=O)CC1CC(c2ccc(C(=N)N)cc2)=NO1)NS(=O)(=O)c1c(C)cc(C)cc1C (centres unmarked) [Example 478]	< 10	–
COC(=O)C(CNC(=O)CC1CC(c2ccc(C(=N)N)cc2)=NO1)NS(=O)(=O)c1ccccc1Cl (centres unmarked) [Example 479]	< 10	–
COC(=O)C(CNC(=O)CC1CC(c2ccc(C(=N)N)cc2)=NO1)NS(=O)(=O)c1ccccc1C(F)(F)F (centres unmarked) [Example 480]	< 10	–
COC(=O)C(CNC(=O)CC1CC(c2ccc(C(=N)N)cc2)=NO1)NS(=O)(=O)c1ccc(C(F)(F)F)cc1 (centres unmarked) [Example 481]	< 10	–
COC(=O)C(CNC(=O)CC1CC(c2ccc(C(=N)N)cc2)=NO1)NS(=O)(=O)c1ccccc1F (centres unmarked) [Example 482]	< 10	–
COC(=O)C(CNC(=O)CC1CC(c2ccc(C(=N)N)cc2)=NO1)NS(=O)(=O)c1ccc(F)cc1 (centres unmarked) [Example 483]	< 10	–
COC(=O)C(CNC(=O)CC1CC(c2ccc(C(=N)N)cc2)=NO1)NS(=O)(=O)c1ccc(OC)cc1 (centres unmarked) [Example 484]	< 10	–
COC(=O)C(CNC(=O)CC1CC(c2ccc(C(=N)N)cc2)=NO1)NS(=O)(=O)c1c(C)c(C)cc(C)c1C (centres unmarked) [Example 485]	< 10	–
COC(=O)C(CNC(=O)CC1CC(c2ccc(C(=N)N)cc2)=NO1)NS(=O)(=O)c1ccc(C#N)cc1 (centres unmarked) [Example 486]	< 10	–
COC(=O)C(CNC(=O)CC1CC(c2ccc(C(=N)N)cc2)=NO1)NS(=O)(=O)c1ccc(Cl)cc1 (centres unmarked) [Example 487]	< 10	–
CCc1ccc(S(=O)(=O)NC(CNC(=O)CC2CC(c3ccc(C(=N)N)cc3)=NO2)C(=O)OC)cc1 (centres unmarked) [Example 488]	< 10	–
CCCc1ccc(S(=O)(=O)NC(CNC(=O)CC2CC(c3ccc(C(=N)N)cc3)=NO2)C(=O)OC)cc1 (centres unmarked) [Example 489]	< 10	–
CCCS(=O)(=O)NC(CNC(=O)CC1CC(c2ccc(C(=N)N)cc2)=NO1)C(=O)OC (centres unmarked) [Example 490]	< 10	–
COC(=O)C(CNC(=O)CC1CC(c2ccc(C(=N)N)cc2)=NO1)NS(=O)(=O)CCc1ccccc1 (centres unmarked) [Example 491]	< 10	–
